Data taken from ChEMBL document CHEMBL5380782, “Design, Biological Evaluation, and Computer-Aided Analysis of Dihydrothiazepines as Selective Antichlamydial Agents” (J Med Chem, 2023).

Legend:
[1] = Mutagenicity in Salmonella typhimurium TA100 assessed as number of revertants per plate at 5000 ug pretreated for 90 mins measured after 66 hrs in presence of S9 by AMES test (reference value: 201 +/- 9.90); assay type: toxicity, Salmonella enterica subsp. enterica serovar Typhimurium; details: in vivo, 67.5 h, dose 5000 µg
[2] = Mutagenicity in Salmonella typhimurium TA100 assessed as mutagenic index ratio at 1500 ug pretreated for 90 mins measured after 66 hrs in presence of S9 by AMES test; assay type: toxicity, Salmonella enterica subsp. enterica serovar Typhimurium; details: in vivo, 67.5 h, dose 1500 µg
[3] = Cytotoxicity against HEp-2 cells assessed as cell viability at 256 ug/ml incubated for 20 hrs by XTT assay relative to control; assay type: toxicity, cell-based; details: human, at 256 µg/mL, read-out: Activity
[4] = Stability of compound in simulated gastric fluid assessed as compound remaining at 2 mg/ml measured after 180 mins by HPLC analysis; assay type: ADME; details: read-out: Stability
Staphylococcus aureus = assay: Antimicrobial activity against Staphylococcus aureus USA 300 JE2 assessed as microbial growth inhibition incubated for 24 hrs by TTC staining based assay; assay type: functional
[5] = Mutagenicity in Salmonella typhimurium TA98 assessed as mutagenic index ratio at 150 ug pretreated for 90 mins measured after 66 hrs in presence of S9 fraction by AMES test; assay type: toxicity, subcellular, Salmonella enterica subsp. enterica serovar Typhimurium; details: s9, 67.5 h, dose 150 µg
[6] = test system: Lacticaseibacillus rhamnosus; assay: Antimicrobial activity against Lactobacillus rhamnosus CGMCC 1.3724 assessed as microbial growth inhibition incubated for 24 hrs by TTC staining based assay; assay type: functional
[7] = Mutagenicity in Salmonella typhimurium TA98 assessed as mutagenic index ratio at 1500 ug pretreated for 90 mins measured after 66 hrs in presence of S9 fraction by AMES test; assay type: toxicity, subcellular, Salmonella enterica subsp. enterica serovar Typhimurium; details: s9, 67.5 h, dose 1500 µg
[8] = Mutagenicity in Salmonella typhimurium TA98 assessed as number of revertants per plate at 150 ug pretreated for 90 mins measured after 66 hrs by AMES test (reference value: 25.67 +/- 5.51); assay type: toxicity, Salmonella enterica subsp. enterica serovar Typhimurium; details: in vivo, 67.5 h, dose 150 µg
[9] = Mutagenicity in Salmonella typhimurium TA100 assessed as number of revertants per plate at 1500 ug pretreated for 90 mins measured after 66 hrs by AMES test (reference value: 206 +/- 7.07); assay type: toxicity, Salmonella enterica subsp. enterica serovar Typhimurium; details: in vivo, 67.5 h, dose 1500 µg
Candida albicans = assay: Antimicrobial activity against Candida albicans 90028 assessed as microbial growth inhibition by broth microdilution method; assay type: functional
[10] = Mutagenicity in Salmonella typhimurium TA98 assessed as mutagenic index ratio at 500 ug pretreated for 90 mins measured after 66 hrs by AMES test; assay type: toxicity, Salmonella enterica subsp. enterica serovar Typhimurium; details: in vivo, 67.5 h, dose 500 µg
[11] = Mutagenicity in Salmonella typhimurium TA100 assessed as number of revertants per plate at 1500 ug pretreated for 90 mins measured after 66 hrs in presence of S9 by AMES test (reference value: 201 +/- 9.90); assay type: toxicity, Salmonella enterica subsp. enterica serovar Typhimurium; details: in vivo, 67.5 h, dose 1500 µg
[12] = Mutagenicity in Salmonella typhimurium TA100 assessed as mutagenic index ratio at 5000 ug pretreated for 90 mins measured after 66 hrs by AMES test; assay type: toxicity, Salmonella enterica subsp. enterica serovar Typhimurium; details: in vivo, 67.5 h, dose 5000 µg
Chlamydia trachomatis [13] = assay: Antibacterial activity against Chlamydia trachomatis serovar L2 infected in HEp-2 cells assessed as bacterial growth inhibition incubated for 16 hrs by IFA assay; assay type: functional, organism-based; details: serovar L2, HEp-2, 16 h
[14] = Mutagenicity in Salmonella typhimurium TA100 assessed as mutagenic index ratio at 500 ug pretreated for 90 mins measured after 66 hrs in presence of S9 by AMES test; assay type: toxicity, Salmonella enterica subsp. enterica serovar Typhimurium; details: in vivo, 67.5 h, dose 500 µg
[15] = Mutagenicity in Salmonella typhimurium TA98 assessed as number of revertants per plate at 5000 ug pretreated for 90 mins measured after 66 hrs in presence of S9 fraction by AMES test (reference value: 24.33 +/- 9.50); assay type: toxicity, subcellular, Salmonella enterica subsp. enterica serovar Typhimurium; details: s9, 67.5 h, dose 5000 µg
[16] = Mutagenicity in Salmonella typhimurium TA100 assessed as mutagenic index ratio at 150 ug pretreated for 90 mins measured after 66 hrs by AMES test; assay type: toxicity, Salmonella enterica subsp. enterica serovar Typhimurium; details: in vivo, 67.5 h, dose 150 µg
Chlamydia trachomatis [17] = assay: Antibacterial activity against Chlamydia trachomatis L2 infected in HEp-2 cells assessed as reduction in number of chlamydial inclusion at 3.12 ug/ml incubated for 24 hrs by fluorescence microscopy relative to control; assay type: functional; set-up: scale not given: the % may be the effect or the level left; details: dose 3.12 µg/ml
[18] = Cytotoxicity against HEK293 cells assessed as cell viability at 25 ug/ml incubated for 20 hrs by XTT assay relative to control; assay type: toxicity, cell-based; details: human, at 25 µg/mL, read-out: Activity
Anaerostipes caccae = assay: Antimicrobial activity against Anaerostipes caccae […] assessed as microbial growth inhibition incubated for 48 hrs; assay type: functional
Chlamydia trachomatis [19] = assay: Inhibition of recombinant Chlamydia trachomatis ClpX ATPase activity assessed as reduction in ATP consumption at 25 ug/ml incubated for 60 mins by Kinase Glo assay relative to control; details: dose 25.0 µg/ml
[20] = test system: Bacteroides thetaiotaomicron; assay: Antimicrobial activity against Bacteroides thetaiotaomicron DSM 2079 assessed as microbial growth inhibition incubated for 48 hrs; assay type: functional
[21] = Mutagenicity in Salmonella typhimurium TA100 assessed as mutagenic index ratio at 150 ug pretreated for 90 mins measured after 66 hrs in presence of S9 by AMES test; assay type: toxicity, Salmonella enterica subsp. enterica serovar Typhimurium; details: in vivo, 67.5 h, dose 150 µg
[22] = Stability of compound in human serum assessed as compound remaining at 2 mg/ml measured after 180 mins by HPLC analysis; assay type: ADME, cell-free; details: read-out: Stability
[23] = Mutagenicity in Salmonella typhimurium TA98 assessed as mutagenic index ratio at 150 ug pretreated for 90 mins measured after 66 hrs by AMES test; assay type: toxicity, Salmonella enterica subsp. enterica serovar Typhimurium; details: in vivo, 67.5 h, dose 150 µg
Pichia kudriavzevii = assay: Antimicrobial activity against Pichia kudriavzevii 6558 assessed as microbial growth inhibition by broth microdilution method; assay type: functional
Thomasclavelia ramosa = assay: Antimicrobial activity against Clostridium ramosum DSM 1402 assessed as microbial growth inhibition incubated for 48 hrs; assay type: functional
[24] = Mutagenicity in Salmonella typhimurium TA98 assessed as number of revertants per plate at 5000 ug pretreated for 90 mins measured after 66 hrs by AMES test (reference value: 25.67 +/- 5.51); assay type: toxicity, Salmonella enterica subsp. enterica serovar Typhimurium; details: in vivo, 67.5 h, dose 5000 µg
[25] = Mutagenicity in Salmonella typhimurium TA98 assessed as mutagenic index ratio at 5000 ug pretreated for 90 mins measured after 66 hrs in presence of S9 fraction by AMES test; assay type: toxicity, subcellular, Salmonella enterica subsp. enterica serovar Typhimurium; details: s9, 67.5 h, dose 5000 µg
Candida tropicalis = assay: Antimicrobial activity against Candida tropicalis 750 assessed as microbial growth inhibition by broth microdilution method; assay type: functional
[26] = Mutagenicity in Salmonella typhimurium TA100 assessed as number of revertants per plate at 500 ug pretreated for 90 mins measured after 66 hrs in presence of S9 by AMES test (reference value: 201 +/- 9.90); assay type: toxicity, Salmonella enterica subsp. enterica serovar Typhimurium; details: in vivo, 67.5 h, dose 500 µg
[27] = Mutagenicity in Salmonella typhimurium TA100 assessed as number of revertants per plate at 150 ug pretreated for 90 mins measured after 66 hrs in presence of S9 by AMES test (reference value: 201 +/- 9.90); assay type: toxicity, Salmonella enterica subsp. enterica serovar Typhimurium; details: in vivo, 67.5 h, dose 150 µg

SMILES: N#Cc1ccccc1C1Sc2ccccc2NC2=C1C(=O)c1ccccc12 (centres undefined)
- Activity [1]: 227
- Ratio [2]: 0.98
- viability at 20 h, 256 ug/ml [3]: 50%
- remaining at 3 h, 2 mg/ml [4]: 90%
- MIC (Staphylococcus aureus): > 125 µg/mL
- Ratio [5]: 1.43
- MIC [6]: > 125 µg/mL
- Ratio [7]: 1.25
- Activity [8]: 34.5
- Activity [9]: 241
- MIC (Candida albicans): > 1000 µg/mL
- Ratio [10]: 1.48
- Activity [11]: 198.5
- Ratio [12]: 1.16
- IC50 (Chlamydia trachomatis [13]; read-out: IC50): 1.61 µg/mL
- IC50 (Chlamydia trachomatis [13]; read-out: pIC50 (converted)): 4.37 µM
- Ratio [14]: 0.95
- Activity [15]: 43.5
- Ratio [16]: 0.91
- Activity (Chlamydia trachomatis [17]): <60%
- viability at 20 h, 25 ug/ml [18]: 84%
- MIC (Anaerostipes caccae): > 125 µg/mL
- inhibition (Chlamydia trachomatis [19]): 20%
- MIC [20]: > 125 µg/mL
- Ratio [21]: 0.93
- remaining at 3 h, 2 mg/ml [22]: 100%
- Ratio [23]: 1.34
- MIC (Pichia kudriavzevii): > 1000 µg/mL
- MIC (Thomasclavelia ramosa): > 125 µg/mL
- Activity [24]: 37.5
- Ratio [25]: 1.78
- MIC (Candida tropicalis): > 1000 µg/mL
- Activity [26]: 191.5
- Activity [27]: 187
